Test results as given in PubChem BioAssay AID264 (DTP/NCI, 2004).
“And” between values parts separate entries of the source, which are not always exact repeats. Identical values can stand only once. Records with an inconclusive call do not appear. Numbered stars: 1 amine (or outer) side, 2 acyl side, 3 side chain; on linkers, the order of the positions; unused ones are H or OH. Square brackets hold non-standard residues; d marks the D form. Peptide text beside a SMILES is read from it. * marks the point of attachment. X2 = CCC(=O)CC1CC(C)CC(C(=O)[*:2])N1[*:1]; X1 = CCCCCCCCC(C)C(=O)*; Aib = CC(C)(N)C(=O)O; X3 = CC(CN(C)CCO)N*

Tested on: nude mice, LX-1 lung xenograft intrarenal, tumor weight T/C
Test: NCI In Vivo Anticancer Drug Screen. Data for tumor model Human Lung LX-1 Xenograft (intrarenal inoculation) in NU/NU Swiss (nude) mice
Settings: endpoint: mean tumor weight change, higher = larger tumour
Outline: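 Activity was scored by measuring tumors in treated animals and in vehicle controls, then reporting the treated result as a fraction of the control result.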

[1] = dose: 300.0 mg/kg/injection, schedule: Q04DX003 (sc), vehicle: suspension in saline
[2] = dose: 1200.0 mg/kg/injection, schedule: Q04DX003 (sc), vehicle: suspension in saline
[3] = dose: 100.0 mg/kg/injection, schedule: Q04DX003 (sc), vehicle: saline with Tween-80
[4] = dose: 300.0 mg/kg/injection, schedule: Q04DX003 (sc), vehicle: saline with Tween-80
[5] = dose: 600.0 mg/kg/injection, schedule: Q04DX003 (sc), vehicle: saline with Tween-80
[6] = dose: 1200.0 mg/kg/injection, schedule: Q04DX003 (sc), vehicle: saline with Tween-80
[7] = dose: 2400.0 mg/kg/injection, schedule: Q04DX003 (sc), vehicle: saline with Tween-80
[8] = dose: 200.0 mg/kg/injection, schedule: Q04DX003 (sc), vehicle: saline with Tween-80
[9] = dose: 600.0 mg/kg/injection, schedule: Q04DX003 (sc), vehicle: suspension in saline
[10] = dose: 2400.0 mg/kg/injection, schedule: Q04DX003 (sc), vehicle: suspension in saline
[11] = dose: 150.0 mg/kg/injection, schedule: Q04DX003 (sc), vehicle: saline with Tween-80

For `CS(=O)(=O)OCCN(CCOS(C)(=O)=O)c1ccc(C=Nc2ccc(-c3csc(COc4ccccc4)n3)cc2)cc1`, the T/C (dose: 12.5 mg/kg/injection, schedule: Q01DX010 (sc), vehicle: Klucel (hydroxypropylcellulose) (HPC)) was 52 % of control, the T/C (dose: 25.0 mg/kg/injection, schedule: Q01DX010 (sc), vehicle: Klucel (hydroxypropylcellulose) (HPC)) was 70 % of control and the T/C (dose: 100.0 mg/kg/injection, schedule: Q01DX010 (sc), vehicle: Klucel (hydroxypropylcellulose) (HPC)) was 106 % of control.

In the case of `CC1=CC(=NN=c2cc(C)n([O-])c(C)c2)C=C(C)[N+]1=O`, the T/C [1] was 96 % of control and the T/C [2] was 77 % of control.

In the case of `O=C(Nc1cccc2c(OC(=O)C(Cl)Cl)c(N=Nc3ccc(S(=O)(=O)Nc4nccs4)cc3)cc(N=Nc3ccc(S(=O)(=O)Nc4nccs4)cc3)c12)C(Cl)Cl` (tested in a mixture with another compound), the T/C (dose: 25.0 mg/kg/injection, schedule: Q04DX003 (sc), vehicle: saline with Tween-80) was 104 % of control, the T/C (dose: 50.0 mg/kg/injection, schedule: Q04DX003 (sc), vehicle: saline with Tween-80) was 92 % of control and the T/C [3] was 116 % of control. The T/C [4] was 90 % of control, the T/C [5] was 120 % of control and the T/C [6] was 83 % of control. For the same compound, the T/C [7] was 120 % of control.

`O=C(O[Si](Cc1ccccc1)(Cc1ccccc1)Cc1ccccc1)N(CCCl)CCCl` was tested, and the T/C [3] was 53 % of control and the T/C [8] was 120 % of control.

`CCN(Cc1ccc(Cl)c(Cl)c1)c1ccc2nc(N)nc(N)c2c1C` was tested, and the T/C (dose: 37.5 mg/kg/injection, schedule: Q04DX003 (sc), vehicle: water) was 62 % of control.

For `CSc1ncc2ncn(C3OC(CO)C(O)C3O)c2n1` (centres undefined), the T/C (dose: 300.0 mg/kg/injection, schedule: Q04DX003 (sc), vehicle: Klucel (hydroxypropylcellulose) (HPC)) was 61 % of control, the T/C (dose: 600.0 mg/kg/injection, schedule: Q04DX003 (sc), vehicle: Klucel (hydroxypropylcellulose) (HPC)) was 57 % of control and the T/C (dose: 1200.0 mg/kg/injection, schedule: Q04DX003 (sc), vehicle: Klucel (hydroxypropylcellulose) (HPC)) was 56 % of control. For the same compound, the T/C (dose: 2400.0 mg/kg/injection, schedule: Q04DX003 (sc), vehicle: Klucel (hydroxypropylcellulose) (HPC)) was 53 % of control.

In the case of `Oc1ccc(O)cc1`, the T/C (dose: 25.0 mg/kg/injection, schedule: Q04DX003 (sc), vehicle: saline) was 102 % of control, the T/C (dose: 50.0 mg/kg/injection, schedule: Q04DX003 (sc), vehicle: saline) was 85 % of control and 98 % of control and the T/C (dose: 100.0 mg/kg/injection, schedule: Q04DX003 (sc), vehicle: saline) was 92 % of control and 93 % of control. For the same compound, the T/C (dose: 200.0 mg/kg/injection, schedule: Q04DX003 (sc), vehicle: saline) was 109 % of control.

`O=C1C=C[C@H](O)[C@@]2(CO)O[C@@H]12` was tested, and the T/C (dose: 6.25 mg/kg/injection, schedule: Q04DX003 (sc), vehicle: saline with Tween-80) was 108 % of control and the T/C (dose: 12.5 mg/kg/injection, schedule: Q04DX003 (sc), vehicle: saline with Tween-80) was 77 % of control.

With `Nc1nc(/C=C(/O)c2ccccc2)c2ncn(C3OC(CO)C(O)C3O)c2n1` (centres undefined) the T/C (dose: 100.0 mg/kg/injection, schedule: Q04DX003 (sc), vehicle: distilled water + Tween-80) was 111 % of control, the T/C (dose: 200.0 mg/kg/injection, schedule: Q04DX003 (sc), vehicle: distilled water + Tween-80) was 100 % of control and the T/C (dose: 400.0 mg/kg/injection, schedule: Q04DX003 (sc), vehicle: distilled water + Tween-80) was 99 % of control.

`N=c1nc2n(cc1F)[C@@H]1O[C@H](CO)[C@@H](O)[C@@H]1O2` was tested, and the T/C [1] was 102 % of control, the T/C [9] was 57 % of control and the T/C [2] was 80 % of control. The T/C [10] was 87 % of control.

With `Oc1ccc(SCc2ccc(NCc3ccccc3)cc2)cc1` the T/C (dose: 25.0 mg/kg/injection, schedule: Q01DX010 (sc), vehicle: saline with Tween-80) was 97 % of control, the T/C (dose: 50.0 mg/kg/injection, schedule: Q01DX010 (sc), vehicle: saline with Tween-80) was 44 % of control and the T/C (dose: 100.0 mg/kg/injection, schedule: Q01DX010 (sc), vehicle: saline with Tween-80) was 53 % of control. The T/C (dose: 400.0 mg/kg/injection, schedule: Q01DX010 (sc), vehicle: saline with Tween-80) was 190 % of control and the T/C (dose: 800.0 mg/kg/injection, schedule: Q01DX010 (sc), vehicle: saline with Tween-80) was 54 % of control.

With `O=C(C/C(=N\C(=S)Nc1cc(C(F)(F)F)ccc1Cl)NO)N1CCCC1` the T/C [4] was 70 % of control, the T/C [5] was 120 % of control and the T/C [6] was 104 % of control. For the same compound, the T/C [7] was 106 % of control.

`Cn1cnc([N+](=O)[O-])c1[Se]c1nc(N)nc2nc[nH]c12` was tested, and the T/C (dose: 12.5 mg/kg/injection, schedule: Q01DX010 (sc), vehicle: water) was 63 % of control, the T/C (dose: 25.0 mg/kg/injection, schedule: Q01DX010 (sc), vehicle: water) was 68 % of control and the T/C (dose: 50.0 mg/kg/injection, schedule: Q01DX010 (sc), vehicle: water) was 176 % of control. The T/C (dose: 100.0 mg/kg/injection, schedule: Q01DX010 (sc), vehicle: water) was 68 % of control.

With `N#CC(=C1C=CC(=NO)C=C1)c1ccc(Cl)cc1` the T/C [11] was 173 % of control, the T/C [6] was 175 % of control and 198 % of control and the T/C [7] was 180 % of control.

In the case of `C[Si](C)(C)n1nnn(-c2ccccc2)c1=O`, the T/C (dose: 75.0 mg/kg/injection, schedule: Q04DX003 (sc), vehicle: saline with Tween-80) was 94 % of control, the T/C [11] was 105 % of control and the T/C [4] was 107 % of control.

`COc1ccc(/C=C/C(=O)c2cc(C(=O)O)c(OC)cc2OC)cc1OC` was tested, and the T/C [1] was 100 % of control, the T/C [9] was 56 % of control and the T/C [2] was 73 % of control. For the same compound, the T/C [10] was 66 % of control.

For `CCCC(=O)O.CCCC(=O)O.CCCC(=O)O.CCCC(=O)O.[Rh].[Rh]`, the T/C (dose: 2.0 mg/kg/injection, schedule: Q04DX003 (sc), vehicle: suspension in saline) was 48 % of control, the T/C (dose: 4.0 mg/kg/injection, schedule: Q04DX003 (sc), vehicle: suspension in saline) was 51 % of control and the T/C (dose: 8.0 mg/kg/injection, schedule: Q04DX003 (sc), vehicle: suspension in saline) was 42 % of control. For the same compound, the T/C (dose: 16.0 mg/kg/injection, schedule: Q04DX003 (sc), vehicle: suspension in saline) was 55 % of control.

`C[N+](C)(C)c1ncnc2c1ncn2C1CCCO1` (centres undefined) was tested, and the T/C (dose: 0.25 mg/kg/injection, schedule: Q01DX010 (sc), vehicle: saline) was 65 % of control, the T/C (dose: 1.0 mg/kg/injection, schedule: Q01DX010 (sc), vehicle: saline) was 106 % of control and the T/C (dose: 2.0 mg/kg/injection, schedule: Q01DX010 (sc), vehicle: saline) was 94 % of control. The T/C (dose: 12.5 mg/kg/injection, schedule: Q01DX010 (sc), vehicle: saline) was 176 % of control and the T/C (dose: 25.0 mg/kg/injection, schedule: Q01DX010 (sc), vehicle: saline) was 120 % of control.

With `OCCN1CCN(CCCN2c3ccccc3Sc3ccc(C(F)(F)F)cc32)CC1` the T/C (dose: 20.0 mg/kg/injection, schedule: Q01DX010 (sc), vehicle: saline) was 69 % of control and the T/C (dose: 40.0 mg/kg/injection, schedule: Q01DX010 (sc), vehicle: saline) was 75 % of control.

In the case of `O/N=C/c1ccccc1O.O/N=C/c1ccccc1O.[Cu]`, the T/C [3] was 72 % of control, the T/C [8] was 67 % of control and 72 % of control and the T/C (dose: 400.0 mg/kg/injection, schedule: Q04DX003 (sc), vehicle: saline with Tween-80) was 93 % of control.

`CC(=S)NC(O)C(=O)c1ccccc1` (centres undefined) was tested, and the T/C [11] was 109 % of control, the T/C [5] was 63 % of control and the T/C [6] was 99 % of control.

`CCCCCCCCC(C)C(=O)N1CCCC1C(=O)N1C(CC(=O)CC)CC(C)CC1C(=O)NC(C)C(=O)NC(C)(C)C(=O)NC(C)(C)C(=O)NC(C(=O)NC(C)C(=O)NC(C)(C)C(=O)NC(C)(C)C(=O)NC(C)CN(C)CCO)C(C)CC` (centres undefined) (X1-P[X2]A[Aib][Aib]IA[Aib][Aib]-X3; configuration not given here) was tested, and the T/C (dose: 5.0 mg/kg/injection, schedule: Q04DX003 (sc), vehicle: Klucel (hydroxypropylcellulose) (HPC)) was 270 % of control.

`CC(C)CC(NC(=O)CF)C(=O)O` (centres undefined) was tested, and the T/C (dose: 5.0 mg/kg/injection, schedule: Q04DX003 (sc), vehicle: saline) was 104 % of control, the T/C (dose: 10.0 mg/kg/injection, schedule: Q04DX003 (sc), vehicle: saline) was 111 % of control and the T/C (dose: 20.0 mg/kg/injection, schedule: Q04DX003 (sc), vehicle: saline) was 70 % of control.

In the case of `OCC12COCN1COC2`, the T/C (dose: 75.0 mg/kg/injection, schedule: Q04DX003 (sc), vehicle: saline) was 102 % of control and the T/C (dose: 150.0 mg/kg/injection, schedule: Q04DX003 (sc), vehicle: saline) was 115 % of control.

In the case of `Cc1cc(SCC(=O)c2ccc(Br)cc2)cc(C)[o+]1`, the T/C (dose: 50.0 mg/kg/injection, schedule: Q01DX010 (sc), vehicle: saline) was 111 % of control and the T/C (dose: 200.0 mg/kg/injection, schedule: Q01DX010 (sc), vehicle: saline) was 116 % of control.

`NC(Cn1ccc(=O)c(O)c1)C(=O)O` (centres undefined) was tested, and the T/C [1] was 115 % of control, the T/C [9] was 104 % of control and the T/C [2] was 119 % of control. For the same compound, the T/C [10] was 73 % of control.
